{"source": "patent US4871758A", "about": "“Pharmacologically active cholinergic compositions, and methods for making same and use thereof in treating disease” (priority 1987, dated 1989)", "key": {"[1]": {"system": "M1 receptors on the intramural inhibitory neurons", "assay": "lower esophageal sphincter pressure assay in anaesthetized opossum", "format": "in vivo", "method": "The compound (I) obtained according to Example 2 was tested by assay on the lower esophageal sphincter of an opossum anaesthetized with sodium phenobarbitol. In carrying out the assay, the lower esophageal sphincter located between the esophagus and the stomach remains in a state of tonic contraction; therefore, a pressure sensing (manometric) catheter introduced from the animal's mouth into the lumen monitors lower esophageal sphincter pressures by registering a sustained high pressure zone, due to the lumen's myogenic contraction which is independent of neural or hormonal influences. Neural activity and hormones can increase or decrease the sphincter pressure and both excitatory and inhibitory influences can be readily detected.\nThe intraluminal pressures from the lower esophageal sphincter, esophageal body and the stomach are continuously monitored using a low compliance, waterfilled and continuously perfused catheter anchored in the lower esophageal sphincter so that artifacts due to axial motion can be minimized. See Goyal et al., Gastroenterology, 71, 62-7 (1976). All animals receive bilateral cervical vagotomy to eliminate vagally mediated changes in the sphincter pressure. Nerves to the sphincter are stimulated electrically by electrodes which are either applied to the distal end of the cut vagus nerve or applied intramurally in the sphincter. See Goyal et al., supra, and Rattan et al., Am. J. Physiol., 234, E272-E276 (1978). Reflex relaxation of the sphincter is produced by distension of the esophagus with an intraluminal balloon. Drugs are administered in the arterial supply of the lower esophageal sphincter. This is done by opening the abdominal cavity and cannulating the artery that leads to the lower esophageal sphincter. The compound is injected into the blood supply of the lower esophageal sphincter and its effect therein is determined. The animal's vital signs are monitored and blood pressure is maintained with intravenous infusion of saline. Some drugs are administered intravenously.\nIn summary, the above-described model permits identification of muscarinic agonists and antagonists in a physiological system."}, "[2]": {"system": "guinea-pig trachea muscle", "assay": "guinea-pig trachea contraction", "details": "muscles have essentially M2 receptors"}, "[3]": {"details": "lower esophageal sphincter, anaesthetized opossum"}}, "note": "Counter-ions that a name gives are not always drawn.", "data": [{"smiles": "Cc1ccc(-c2cncn2C)o1", "note": "[Compound I, 1-(N-methyl)-5-(5'-methyl-2'-furyl)imidazole, Hydrochloride]", "values": [{"measurement": "M1 receptor selectivity", "setting": "[1]; M1 versus M2, from sphincter and trachea results", "result": "highly selective for M1 receptors"}, {"measurement": "blockade of activity by antagonist", "setting": "[1]; atropine", "result": "blocked by atropine"}, {"measurement": "agonist type", "setting": "[1]; inferred from 80% of full agonist activity", "result": "partial agonist"}, {"measurement": "dosage giving peak effect", "setting": "[1]; [3]", "result": "10^-6 mole/kg"}, {"measurement": "threshold dosage", "setting": "[1]; [3]", "result": "10^-8 mole/kg"}, {"measurement": "muscarinic receptor subtype effects", "setting": "[1]; lower esophageal sphincter, anaesthetized opossum, injected into arterial supply of the sphincter", "result": "only M1 effects"}, {"measurement": "potency in contracting the trachea muscle", "setting": "[2]", "result": "virtually no potency"}]}]}
